Data on eight molecules can be found in patent US20210338629A1, “ORAL FORMULATIONS OF PHENYLALANINE AND CANNABINOIDS” (priority 2018, published 2021).

Where two headings read alike, the source gives them in different places.

Series [1] concerns the target T1, human CB1R (Homo sapiens, UniProt P21554).
T1 construct: expressed in transfected cells; host or cells: HEK293T (HEK293T-CB1), transiently co-transfected with the CRE-luc reporter
It is filed as cell-based.

Series [2] has as its target T1, human CB1R. The series is classed as cell-based. The note with it: for Effect of the cannabinoid on the DLPA effect (DLPA alone vs combos): FIG. 5A-5C.
Series [3] has as its system neuropathic and chronic pain. The following applies: 1,000 mg given ×1 (once a day); cited from earlier work.
In another series the test system is inflammation. The following applies: co-administered with THC; cited from earlier work.
The conditions of series [4]: cited from earlier work.
For series [5], the system named is glutamatergic synapses in hippocampus and cortex. The note with it: cited from earlier work.
Series [6] concerns the target α2δ Ca2+ calcium channels. The note with it: antagonist; cited from earlier work.
[7] abbreviates: DLPA 1 mM, alone or + 10 μM THCA or THC.
Where [8] appears, read: DLPA 2.5 mM, alone or + 10 μM THCA or THC.
Setting [9] is: DLPA 5 mM, alone or + 10 μM THCA or THC.
[10] abbreviates: DLPA 7.5 mM, alone or + 10 μM THCA or THC.
[11] abbreviates: DLPA 10 mM, alone or + 10 μM THCA or THC.
[12] abbreviates: DLPA 1 mM, alone or + 10 μM THCA, 1 μM CBD or 10 μM THC.
[13] abbreviates: DLPA 2.5 mM, alone or + 10 μM THCA, 1 μM CBD or 10 μM THC.
Setting [14] is: DLPA 5 mM, alone or + 10 μM THCA, 1 μM CBD or 10 μM THC.
[15] abbreviates: DLPA 7.5 mM, alone or + 10 μM THCA, 1 μM CBD or 10 μM THC.
Where [16] appears, read: DLPA 10 mM, alone or + 10 μM THCA, 1 μM CBD or 10 μM THC.
The mark [17] stands for this setting: THCA or THC without DLPA, 10 μM.

T1 sequence (P21554 whole entry): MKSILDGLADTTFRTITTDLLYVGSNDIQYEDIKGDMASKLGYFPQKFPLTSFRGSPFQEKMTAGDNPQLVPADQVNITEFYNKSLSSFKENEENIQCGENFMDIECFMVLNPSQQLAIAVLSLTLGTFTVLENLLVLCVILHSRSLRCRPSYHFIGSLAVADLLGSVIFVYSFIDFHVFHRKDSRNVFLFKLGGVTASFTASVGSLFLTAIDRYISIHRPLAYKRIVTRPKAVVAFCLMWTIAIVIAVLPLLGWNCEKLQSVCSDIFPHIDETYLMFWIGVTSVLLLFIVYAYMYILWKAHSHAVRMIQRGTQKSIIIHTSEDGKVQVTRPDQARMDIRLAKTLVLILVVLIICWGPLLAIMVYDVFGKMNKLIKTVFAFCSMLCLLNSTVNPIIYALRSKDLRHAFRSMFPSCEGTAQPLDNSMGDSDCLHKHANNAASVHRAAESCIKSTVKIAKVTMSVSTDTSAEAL

As for `NC(Cc1ccccc1)C(=O)O` (racemic) [DLPA, DL-Phenylalanine], the “Conclusions: Is CB1R agonist effect observed?” value at human CB1R [1] (setting [7]), on human CB1R [1] (setting [8]), on human CB1R [1] (setting [9]), on human CB1R [1] (setting [10]) and at human CB1R [1] (setting [11]) was “Negative (Only treatments that the mean of three consecutive independent experiments shows a positive result: CB1R activity ≥2.5-fold increase or ≥4-fold increase are considered CB1R agonists or CB1R positive allosteric modulators)” in each case. Moreover, the “Experiment 1 Fold change” value at human CB1R [1] (setting [7]) was determined as 0.9 fold change; at human CB1R [1] (setting [8]) it was 1.0 fold change; on human CB1R [1] (setting [9]), 0.8 fold change; at human CB1R [1] (setting [10]), 1.0 fold change; at human CB1R [1] (setting [11]), 1.1 fold change; on human CB1R [2] (setting [12]), 2.7 fold change. Further, the “Experiment 1 Fold change” value at human CB1R [2] (setting [13]) is 2.4 fold change; on human CB1R [2] (setting [14]) it was 3.1 fold change; at human CB1R [2] (setting [15]), 3.1 fold change; at human CB1R [2] (setting [16]) it was 4.0 fold change. Further, the “Experiment 2 Fold change” value at human CB1R [1] (setting [7]) turned out to be 0.9 fold change; at human CB1R [1] (setting [8]), 0.9 fold change; at human CB1R [1] (setting [9]) it was 0.8 fold change; on human CB1R [1] (setting [10]), 0.8 fold change; at human CB1R [1] (setting [11]) it was 1.0 fold change; on human CB1R [2] (setting [12]) it was 2.5 fold change. Besides, the “Experiment 2 Fold change” value on human CB1R [2] (setting [13]) is listed as 2.1 fold change; at human CB1R [2] (setting [14]), 2.7 fold change; at human CB1R [2] (setting [15]), 3.1 fold change; at human CB1R [2] (setting [16]), 3.5 fold change. For the same molecule, the “Experiment 3 Fold change” value is recorded as 1.0 fold change on human CB1R [1] (setting [7]); 0.9 fold change on human CB1R [1] (setting [8]); 0.7 fold change on human CB1R [1] (setting [9]); 1.0 fold change on human CB1R [1] (setting [10]); 1.0 fold change at human CB1R [1] (setting [11]); 3.0 fold change on human CB1R [2] (setting [12]). The “Experiment 3 Fold change” value was found to be 4.0 fold change at human CB1R [2] (setting [13]), 2.9 fold change on human CB1R [2] (setting [14]), 5.0 fold change on human CB1R [2] (setting [15]) and 6.5 fold change at human CB1R [2] (setting [16]). Also, the “CB1R agonistic activity (in words)” value on human CB1R [1] (all tested concentrations, DLPA 1-10 mM, THC or THCA 10 μM) is on record as “did not show CB1R agonistic activity”. The “Conclusions: Is CB1R positive allosteric agonism effect observed?” value is recorded as “Negative (Only treatments that the mean of three consecutive independent experiments shows a positive result (CB1R activity ≥4-fold change) are considered positive CB1R allosteric agonists)” at human CB1R [2] (setting [12]); “Negative (Only treatments that the mean of three consecutive independent experiments shows a positive result (CB1R activity ≥4-fold change) are considered positive CB1R allosteric agonists)” on human CB1R [2] (setting [13]); “Negative (Only treatments that the mean of three consecutive independent experiments shows a positive result (CB1R activity ≥4-fold change) are considered positive CB1R allosteric agonists)” on human CB1R [2] (setting [14]); “Negative (Only treatments that the mean of three consecutive independent experiments shows a positive result (CB1R activity ≥4-fold change) are considered positive CB1R allosteric agonists)” on human CB1R [2] (setting [15]); “Allosterism (An increase of the fold change ≥4-fold indicates CB1R positive allosteric agonistic activity)” on human CB1R [2] (setting [16]). Besides, at human CB1R [2] (on CP-55940 activity, dose-response curve, FIG. 4), the “CB1R positive allosteric effect (in words)” value is “clear CB1R positive allosteric effect”. Besides, the “Relief of neuropathic and chronic pain” value in series [3] is listed as “beneficial”.
As to `CCCCCc1cc(O)c2c(c1)OC(C)(CCC=C(C)C)C=C2` (stereo not drawn) [CBC, cannabichromene], in the series on inflammation, the Anti-inflammatory effect entry is “enhanced anti-inflammatory effect”.
As to `C=C(C)[C@@H]1CCC(C)=C[C@H]1c1c(O)cc(CCCCC)cc1O` [CBD, cannabidiol, reference compound], on human CB1R [2] (CBD without DLPA, 1 μM), the “Conclusions: Is CB1R positive allosteric agonism effect observed?” value is “Negative (Only treatments that the mean of three consecutive independent experiments shows a positive result (CB1R activity ≥4-fold change) are considered positive CB1R allosteric agonists)”, the “Experiment 1 Fold change” value is on record as 1.4 fold change, the “Experiment 2 Fold change” value is 1.5 fold change and the “Experiment 3 Fold change” value amounted to 1.4 fold change. Further, the “Effect of the cannabinoid on the DLPA effect (DLPA alone vs combos)” value at human CB1R [2] is given as “blocked not only the DLPA CB1R allosteric activity, but also the agonistic activity of CP-55940”.
As to `C=C(C)[C@@H]1CCC(C)=C[C@H]1c1c(O)cc(CCCCC)c(C(=O)O)c1O` [CBDA, cannabidiolic acid], the “Decarboxylation by gastric acids” value in series [4] is recorded as “do not decarboxylate”.
`CCCCCCC(C)(C)c1ccc([C@@H]2C[C@H](O)CC[C@H]2CCCO)c(O)c1` [CP, reference compound]: at human CB1R [1], the “Experiment 1 Fold change” value came to 2.5 fold change, the “Experiment 2 Fold change” value turned out to be 2.5 fold change and the “Experiment 3 Fold change” value worked out at 2.5 fold change. Also, on human CB1R [2], the “Experiment 1 Fold change” value was 2.5 fold change, the “Experiment 2 Fold change” value came out at 2.5 fold change and the “Experiment 3 Fold change” value stood at 2.5 fold change.
Consider `N[C@H](Cc1ccccc1)C(=O)O` [D-phenylalanine], for which, in series [5] (compared with L-Phenylalanine), the “Effect on neurotransmitter release (in words)” value is on record as “significantly smaller effect”.
Usually Ki stands for a measure of affinity in units of concentration, obtained from inhibition or displacement. What is called IC50 is the concentration needed to halve the response being measured. Regarding `N[C@@H](Cc1ccccc1)C(=O)O` [L-Phenylalanine, L-phenylalanine], the Ki in series [6] was 0.98 µM. The IC50 in series [5] (hippocampus and cortex) is 980 µM.
For `CCCCCc1cc2c(c(O)c1C(=O)O)[C@@H]1C=C(C)CC[C@H]1C(C)(C)O2` [THCA, tetrahydrocannabinolic acid], on human CB1R [1] (THCA or THC alone, 10 μM), the “Conclusions: Is CB1R agonist effect observed?” value is recorded as “Negative (Only treatments that the mean of three consecutive independent experiments shows a positive result: CB1R activity ≥2.5-fold increase or ≥4-fold increase are considered CB1R agonists or CB1R positive allosteric modulators)”, the “Experiment 1 Fold change” value is 0.8 fold change, the “Experiment 2 Fold change” value is listed as 1.0 fold change and the “Experiment 3 Fold change” value was determined as 1.0 fold change. For the same molecule, the “Effect of the cannabinoid on the DLPA effect (DLPA alone vs combos)” value at human CB1R [2] is “did not modify the DLPA effect”. On human CB1R [2] (setting [17]), the “Conclusions: Is CB1R positive allosteric agonism effect observed?” value was “Negative (Only treatments that the mean of three consecutive independent experiments shows a positive result (CB1R activity ≥4-fold change) are considered positive CB1R allosteric agonists)”, the “Experiment 1 Fold change” value worked out at 2.2 fold change, the “Experiment 2 Fold change” value stood at 3.1 fold change and the “Experiment 3 Fold change” value was determined as 2.8 fold change. The “Decarboxylation by gastric acids” value in series [4] is given as “do not decarboxylate”.
